Earlier results in publication PMC12525602, “Identification of Selective α-Glucosidase Inhibitors via Virtual Screening with Machine Learning” (Molecules, 2025).

System: α-glucosidase
Settings: 300-compound dataset of reported inhibitors and ineffective compounds, Table S4; cited from earlier work

| Compound | activity (label in modeling dataset) |
| --- | --- |
| C[C@@H]1O[C@@H](Oc2cc(O)c3c(=O)c(O[C@@H]4O[C@@H](C)[C@H](O)[C@@H](O)[C@H]4O)c(-c4ccc(O)cc4)oc3c2)[C@H](O)[C@H](O)[C@H]1O [compound 0, C[C@H]1[C@H](O)[C@@H](O)[C@@H](O)[C@H](OC2=CC(O)=C3C(OC(C4=CC=C(O)C=C4)=C(O[C@H]5[C@H](O)[C@H](O)[C@@H](O)[C@H](C)O5)C3=O)=C2)O1] | 0 |
| Cc1ccc(Nc2nnc(-c3cc4cc(C#N)ccc4[nH]3)s2)cc1 [compound 4, CC(C=C1)=CC=C1NC(S2)=NN=C2C3=CC4=CC(C#N)=CC=C4N3] | 0 |

Same assay, conditions: Table S5 modeling dataset; activity label 1 = active, 0 = inactive; cited from earlier work

| Compound | activity |
| --- | --- |
| COc1cc(/C=C2\CC(=O)N(C(=O)CN3CCOCC3)C2=O)ccc1O [compound 137] | 0 |
| COc1ccc(S(=O)(=O)NNC(=O)c2cc3cc(F)ccc3[nH]2)cc1 [compound 105] | 0 |
| O=C(O)C1(O)C[C@@H](O)C(O)[C@H](O)C1 (stereo partly shown) [compound 91] | 0 |
| COc1ccccc1Nc1nnc(-c2cc3cc(C#N)ccc3[nH]2)s1 [compound 102] | 0 |
| Fc1ccc(-n2cc(CSc3nnc(COc4cccc5cccnc45)o3)nn2)cc1 [compound 115] | 0 |
| CCCSc1nnc(COc2cccc3cccnc23)o1 [compound 123] | 0 |
| CC(C)=CCC1(O)C(O)=C(C(=O)CC(C)C)C(=O)C1(O)C(=O)C=C(C)C (stereo not shown) [compound 130] | 0 |
| O=C(NNS(=O)(=O)c1ccc(OC(F)(F)F)cc1)c1cc2cc(F)ccc2[nH]1 [compound 94] | 0 |
| CC1CCCN(c2ccc(/C=N/Nc3nc(-c4ccc(C#N)cc4)cs3)cc2)C1 (stereo not shown) [compound 106] | 0 |
| O=C(NNS(=O)(=O)c1cccc(Cl)c1)c1cc2cc(F)ccc2[nH]1 [compound 136] | 0 |
| CC1CCCN(c2ccc(/C=N/Nc3nc(-c4ccc(O)c(O)c4)cs3)cc2)C1 (stereo not shown) [compound 93] | 0 |

Same assay, conditions: activity label in the 300-compound modeling dataset (Table S5); 1 = active, 0 = inactive; cited from earlier work

| Compound | activity |
| --- | --- |
| O=[N+]([O-])c1ccccc1-c1nnc(/N=C(/CSc2nnc3c(n2)[nH]c2ccccc23)c2ccc(-c3ccccc3)cc2)s1 [compound 223] | 1 |
| O=C(NNS(=O)(=O)c1ccc(Cl)cc1)c1cc2cc(F)ccc2[nH]1 [compound 191] | 1 |
| COc1ccc(Br)cc1-c1nnc(/N=C(/CSc2nnc3c(n2)[nH]c2ccccc23)c2ccccc2[N+](=O)[O-])s1 [compound 199] | 1 |
| COc1cc(/C=C/C(=O)O)cc(-c2cc(/C=C/C(=O)O)cc(OC)c2O)c1O [compound 205] | 1 |
| COc1ccc(/C(CSc2nnc3c(n2)[nH]c2ccccc23)=N\c2nnc(-c3ccc([N+](=O)[O-])cc3)s2)cc1 [compound 217] | 1 |
| CC1CCN(c2ccc(/C=N/Nc3nc(-c4ccc(O)cc4)cs3)cc2)CC1 [compound 194] | 1 |
| O=C(NNS(=O)(=O)c1ccccc1F)c1cc2cc(F)ccc2[nH]1 [compound 226] | 1 |
| Cc1ccc(-c2csc(N/N=C/c3ccc(N4CCC(C)CC4)cc3)n2)cc1 [compound 186] | 1 |
| Fc1ccc(CNc2cccc(-c3nc4ccccc4[nH]3)c2)cc1 [compound 227] | 1 |
| O=C(CCc1ccc(O)cc1)c1c(O)cc(O)cc1O[C@@H]1O[C@H](CO)[C@@H](O)[C@H](O)[C@H]1O [compound 192] | 1 |
| COc1cc(/C=C/C(=O)O)ccc1O/C(=C\c1cc(OC)c(O)c(-c2cc(/C=C/C(=O)O)cc(OC)c2O)c1)C(=O)O [compound 210] | 1 |

Same assay, conditions: activity label of the 300-compound modeling dataset, Table S5; cited from earlier work

| Compound | activity |
| --- | --- |
| Clc1ncccc1CNc1cccc(-c2nc3ccccc3[nH]2)c1 [compound 237] | 1 |
| CN(C)c1ccc(/C=N/CCc2ccc(O)cc2)cc1 [compound 258] | 1 |
| O=c1c(O)c(-c2ccc(O)cc2)oc2cc(O)cc(O)c12 [compound 244] | 1 |
| Fc1cccc(CNc2cccc(-c3nc4ccccc4[nH]3)c2)c1 [compound 260] | 1 |
| COC(=O)Cn1c(=O)oc2c(C(=O)/C=C/c3cc(F)c(O)c(F)c3)cccc21 [compound 264] | 1 |
| O=C1CC(/C=N/Nc2cccc(Br)c2)Oc2ccccc21 (stereo not shown) [compound 233] | 1 |
| O=C(/C=C/c1ccc(O)cc1)c1cccc2[nH]c(=O)oc12 [compound 247] | 1 |
| O=C1Nc2ccccc2/C1=N/N=C/c1ccc(OCc2cn(Cc3ccccc3)nn2)cc1 [compound 259] | 1 |
| COc1ccc(/C(CSc2nnc3c(n2)[nH]c2ccccc23)=N\c2nnc(-c3ccc(Cl)c(Cl)c3)s2)cc1 [compound 249] | 1 |
| Brc1ccc(CNc2cccc(-c3nc4ccccc4[nH]3)c2)cn1 [compound 254] | 1 |
| COc1ccc2nc3cc(Cl)ccc3c(SCC(=O)NCc3cccc(Cl)c3)c2c1 [compound 266] | 1 |
| COc1cccc(CNc2cccc(-c3nc4ccccc4[nH]3)c2)n1 [compound 270] | 1 |
| Cc1ccccc1Cn1cc(COc2ccc(/C=N/N=C3\C(=O)Nc4ccccc43)cc2)nn1 [compound 263] | 1 |

Same assay, conditions: activity label of the modeling dataset (Table S5), α-glucosidase; 1 = active, 0 = inactive; cited from earlier work

| Compound | activity |
| --- | --- |
| N#Cc1c(-c2ccncc2)cc(-c2ccccn2)c(C#N)c1N [compound 28] | 0 |
| Cc1ccc(-c2cc(-c3cccc([N+](=O)[O-])c3)c(C#N)c(N)c2C#N)cc1 [compound 20] | 0 |
| O=c1c(O[C@@H]2O[C@H](CO)[C@@H](O)[C@H](O)[C@H]2O)c(-c2ccc(O)cc2)oc2cc(O)cc(O)c12 [compound 41] | 0 |
| O=C(c1ccccc1)c1ccc2nc(-c3ccccc3O)[nH]c2c1 [compound 30] | 0 |
| Cc1ccccc1Nc1nnc(-c2cc3cc(C#N)ccc3[nH]2)s1 [compound 14] | 0 |
| C[C@@H]1O[C@@H](Oc2cc(O)c3c(=O)c(O[C@@H]4O[C@@H](C)[C@H](O)[C@@H](O)[C@H]4O)c(-c4ccc(O)cc4)oc3c2)[C@H](O)[C@H](O)[C@H]1O [compound 0, C[C@H]1[C@H](O)[C@@H](O)[C@@H](O)[C@H](OC2=CC(O)=C3C(OC(C4=CC=C(O)C=C4)=C(O[C@H]5[C@H](O)[C@H](O)[C@@H](O)[C@H](C)O5)C3=O)=C2)O1] | 0 |
| Brc1ccc(Cn2cc(CSc3nnc(COc4cccc5cccnc45)o3)nn2)cc1 [compound 33] | 0 |
| N#Cc1ccc2[nH]c(-c3nnc(Nc4ccc(Cl)cc4)s3)cc2c1 [compound 23] | 0 |
| Cc1ccc(Nc2nnc(-c3cc4cc(C#N)ccc4[nH]3)s2)cc1 [compound 4, CC(C=C1)=CC=C1NC(S2)=NN=C2C3=CC4=CC(C#N)=CC=C4N3] | 0 |
| O=c1c(O[C@@H]2O[C@H](CO)[C@@H](O)[C@H](O)[C@H]2O)c(-c2ccc(O)c(O)c2)oc2cc(O)cc(O)c12 [compound 31] | 0 |
| N#Cc1c(-c2ccc(Cl)cc2)cc(-c2ccco2)c(C#N)c1N [compound 24] | 0 |
| O=C(c1ccccc1)c1ccc2nc(-c3ccc(Br)cc3)[nH]c2c1 [compound 8] | 0 |
| N#Cc1c(-c2ccncc2)cc(-c2cccnc2)c(C#N)c1N [compound 25] | 0 |

Same assay, conditions: activity label of the modeling dataset, Table S5 (1 = active, 0 = inactive); cited from earlier work

| Compound | activity |
| --- | --- |
| N#Cc1c(-c2cccc(Cl)c2)cc(-c2cccc([N+](=O)[O-])c2)c(C#N)c1N [compound 50] | 0 |
| Clc1ccc(Cn2cc(CSc3nnc(COc4cccc5cccnc45)o3)nn2)cc1 [compound 73] | 0 |
| BrCCSc1nnc(COc2cccc3cccnc23)o1 [compound 57] | 0 |
| CCCCCn1cc(CSc2nnc(COc3cccc4cccnc34)o2)nn1 [compound 82] | 0 |
| Cc1ccc(S(=O)(=O)NNC(=O)c2cc3cc(F)ccc3[nH]2)cc1 [compound 53] | 0 |
| Cc1ccc(-n2cc(CSc3nnc(COc4cccc5cccnc45)o3)nn2)cc1 [compound 59] | 0 |

Same assay, conditions: activity label of the modeling dataset, Table S5; cited from earlier work

| Compound | activity |
| --- | --- |
| COc1cc(/C=N/N=C2\C(=O)Nc3ccccc32)ccc1OCc1cn(Cc2ccccc2C)nn1 [compound 142] | 0 |
| COc1cccc(C(=O)C2C(O)c3ccccc3S(=O)(=O)N2CC(=O)Nc2ccccc2Cl)c1 (stereo not shown) [compound 168] | 1 |
| N#Cc1ccc2[nH]c(-c3nnc(Nc4ccccc4F)s3)cc2c1 [compound 184] | 1 |
| N#Cc1ccc2[nH]c(-c3nnc(Nc4ccc(F)cc4)s3)cc2c1 [compound 170] | 1 |
| O=C(NNS(=O)(=O)c1ccc(C(F)(F)F)cc1)c1cc2cc(F)ccc2[nH]1 [compound 150] | 1 |
| COc1ccc(Br)cc1-c1nnc(/N=C(/CSc2nnc3c(n2)[nH]c2ccccc23)c2ccc(-c3ccccc3)cc2)s1 [compound 165] | 1 |
| C[C@@H]1O[C@@H](Oc2c(-c3ccc(O)c(O)c3)oc3cc(O)cc(O)c3c2=O)[C@H](O)[C@H](O)[C@H]1O [compound 175] | 1 |
| COc1ccc(/C(CSc2nnc3c(n2)[nH]c2ccccc23)=N\c2nnc(-c3cc(Br)ccc3OC)s2)cc1 [compound 173] | 1 |
| CC(C)=CCc1c(O)cc2c(c1O)C(=O)CC(c1ccc(O)cc1)O2 (stereo not shown) [compound 169] | 1 |
| COc1cc(/C=N/N=C2\C(=O)Nc3ccccc32)ccc1OCc1cn(Cc2ccc(F)cc2)nn1 [compound 144] | 0 |
| O=C(CSc1nc2ccccc2cc1-c1nc2ccccc2[nH]1)Nc1cccc(Cl)c1 [compound 149] | 1 |
| CC1CCCN(c2ccc(/C=N/Nc3nc(-c4ccc(O)cc4)cs3)cc2)C1 (stereo not shown) [compound 140] | 0 |
| O=c1c(O[C@@H]2O[C@H](CO)[C@@H](O)[C@H](O)[C@H]2O)c(-c2ccc(O)c(O)c2)oc2cc(O)cc(O)c12 [compound 159] | 1 |
| O=c1c(O[C@@H]2O[C@@H](CO)[C@H](O)[C@H]2O)c(-c2ccc(O)c(O)c2)oc2cc(O)cc(O)c12 [compound 139] | 0 |
| COc1cc(/C=N/N=C2\C(=O)Nc3ccccc32)ccc1OCc1cn(Cc2ccccc2F)nn1 [compound 143] | 0 |

Same assay, conditions: activity label of the modeling dataset, sheet Table S5; 1 = active, 0 = inactive; cited from earlier work

| Compound | activity |
| --- | --- |
| Clc1cccc(-c2cnc3ccccc3n2)c1 [compound 290] | 1 |
| COC(=O)Cn1c(=O)oc2c(C(=O)/C=C/c3ccc(O)cc3)cccc21 [compound 287] | 1 |
| Cn1ccnc1SC(=O)c1ccc(-c2cccc(Cl)c2)o1 [compound 298] | 1 |
| COc1ccc(/C=N/N=C(/C)c2ccc([N+](=O)[O-])cc2)c(OC)c1 [compound 291] | 1 |
| COc1ccc(/C=N/N=C(/C)c2ccc([N+](=O)[O-])cc2)cc1 [compound 279] | 1 |
